Source: the NIST ThermoML archive (doi:10.1016/j.fluid.2019.05.003)

Test: xn = mol fraction of the nth substance listed
Details: 101 kPa, Liquid; for mass density: Vibrating tube method; for viscosity: Falling or rolling sphere viscometry

C[N+]1(CCO)CCOCC1.[Br-] [N-methyl-N-(2-hydroxyethyl)morpholinium bromide] + O
Details | mass density [kg/m3] | viscosity [mPa·s]
323.15 K, x1 = 0.023 | 1066.9 | –
323.15 K, x1 = 0.038 | 1109 | –
323.15 K, x1 = 0.051 | 1138.2 | –
323.15 K, x1 = 0.075 | 1184.5 | –
323.15 K, x1 = 0.097 | 1218.1 | –
323.15 K, x1 = 0.124 | 1250.5 | –
323.15 K, x1 = 0.157 | 1282.8 | –
323.15 K, x1 = 0.197 | 1313.9 | –
323.15 K, x1 = 0.227 | 1330.6 | –
328.15 K, x1 = 0.023 | 1064.7 | 0.703
328.15 K, x1 = 0.038 | 1106.2 | 0.871
328.15 K, x1 = 0.051 | 1135.9 | 0.982
328.15 K, x1 = 0.075 | 1181.6 | 1.305
328.15 K, x1 = 0.097 | 1215.1 | 1.718
328.15 K, x1 = 0.124 | 1247.6 | 2.4
328.15 K, x1 = 0.157 | 1279.8 | 3.505
328.15 K, x1 = 0.197 | 1310.7 | 6.095
328.15 K, x1 = 0.227 | 1327.5 | 8.272
333.15 K, x1 = 0.023 | 1062.5 | 0.656
333.15 K, x1 = 0.038 | 1103.3 | 0.807
333.15 K, x1 = 0.051 | 1133.3 | 0.913
333.15 K, x1 = 0.075 | 1178.7 | 1.201
333.15 K, x1 = 0.097 | 1212.1 | 1.581
333.15 K, x1 = 0.124 | 1244.5 | 2.186
333.15 K, x1 = 0.157 | 1276.7 | 3.163
333.15 K, x1 = 0.197 | 1307.8 | 5.346
333.15 K, x1 = 0.227 | 1324.2 | 7.316
338.15 K, x1 = 0.023 | 1060.1 | 0.632
338.15 K, x1 = 0.038 | 1101.2 | 0.756
338.15 K, x1 = 0.051 | 1130.8 | 0.849
338.15 K, x1 = 0.075 | 1175.6 | 1.135
338.15 K, x1 = 0.097 | 1209.5 | 1.453
338.15 K, x1 = 0.124 | 1241.5 | 2.007
338.15 K, x1 = 0.157 | 1273.5 | 2.854
338.15 K, x1 = 0.197 | 1304.7 | 4.811
338.15 K, x1 = 0.227 | 1321.1 | 6.504
343.15 K, x1 = 0.023 | 1057.7 | 0.596
343.15 K, x1 = 0.038 | 1098.7 | 0.716
343.15 K, x1 = 0.051 | 1128.3 | 0.796
343.15 K, x1 = 0.075 | 1173.2 | 1.055
343.15 K, x1 = 0.097 | 1206.6 | 1.339
343.15 K, x1 = 0.124 | 1238.3 | 1.873
343.15 K, x1 = 0.157 | 1270.4 | 2.621
343.15 K, x1 = 0.197 | 1301.5 | 4.333
343.15 K, x1 = 0.227 | 1317.9 | 5.834
348.15 K, x1 = 0.023 | 1055.3 | 0.561
348.15 K, x1 = 0.038 | 1096.2 | 0.675
348.15 K, x1 = 0.051 | 1125.7 | 0.749
348.15 K, x1 = 0.075 | 1170.4 | 0.996
348.15 K, x1 = 0.097 | 1203.8 | 1.259
348.15 K, x1 = 0.124 | 1235.2 | 1.719
348.15 K, x1 = 0.157 | 1267.6 | 2.407
348.15 K, x1 = 0.197 | 1298.3 | 3.882
348.15 K, x1 = 0.227 | 1315.1 | 5.243
